Measurements from US20080269267A1, “KINASE INHIBITORS USEFUL FOR THE TREATMENT OF MYLEOPROLIFIC DISEASES AND OTHER PROLIFERATIVE DISEASES” (Deciphera Pharmaceuticals, LLC, priority 2007, published 2008).
pIC50: −log10 of the molar value. Counter-ions that a name gives are not always drawn.

Assays:
[1] = biological target: B-Raf(V600E) kinase (SEQ ID NO:11) (Homo sapiens, UniProt P15056, V600E); assay: B-Raf(V600E) kinase assay (pyruvate kinase/lactate dehydrogenase coupled, MEK1 substrate); conditions: 1 h preincubation at 30° C., ATP 0.2 mM; read-out: B-Raf V600E Enzyme Assay, biochemical IC50
B-Raf(V600E) kinase (SEQ ID NO:11), sequence (P15056 with tags, fused parts or gaps V600E): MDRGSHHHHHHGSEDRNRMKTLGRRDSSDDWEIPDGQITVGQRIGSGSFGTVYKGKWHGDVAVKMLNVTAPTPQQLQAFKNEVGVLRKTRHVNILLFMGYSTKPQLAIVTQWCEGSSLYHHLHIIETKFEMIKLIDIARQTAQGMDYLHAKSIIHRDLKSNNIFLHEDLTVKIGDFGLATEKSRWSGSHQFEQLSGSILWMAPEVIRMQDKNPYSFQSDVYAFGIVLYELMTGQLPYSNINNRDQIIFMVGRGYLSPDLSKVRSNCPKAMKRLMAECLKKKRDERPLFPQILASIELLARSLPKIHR
Experimental: B-Raf(V600E) Kinase Assay
The activity of B-Raf(V600E) kinase (SEQ ID NO:11) was determined by following the formation of ADP from the reaction through coupling with the pyruvate kinase/lactate dehydrogenase system (e.g., Schindler, et al. Science (2000) 289, 1938-1942). In this assay, the oxidation of NADH (thus the decrease at A340nm) was continuously monitored spectrophotometrically. The reaction mixture (100 μl) contained B-Raf(V600E) kinase (0.34 nM nominal concentration, SEQ ID NO:11), unphosphorylated, full-length MEK1 (42 nM, SEQ ID NO:12), MgCl2 (13 mM), pyruvate kinase (3.5 units), lactate dehydrogenase (5.5 units), phosphoenolpyruvate (1 mM), and NADH (0.28 mM), in 60 mM Tris buffer, containing 0.13% octyl-glucoside and 3.5% DMSO concentration at pH 7.5. The test compounds were incubated with the reaction mixture at 30° C. for 1 h. The reaction was initiated by adding ATP (0.2 mM, final concentration). The absorption at 340 nm was continuously monitored for 3 h at 30° C. on a Polarstar Optima plate reader (BMG). The reaction rate was calculated using the 0.5 h to 1.5 h time frame. Percent inhibition was obtained by comparison of reaction rate with that of a control (i.e. with no test compound). IC50 values were calculated from a series of percent inhibition values determined at a range of inhibitor concentrations using software routines as implemented in the GraphPad Prism software package.

Abl kinase (SEQ ID NO:1) = biological target: T1, Abl kinase (SEQ ID NO:1) (Homo sapiens, UniProt P00519); assay: Abl kinase assay (pyruvate kinase/lactate dehydrogenase coupled, ADP production); conditions: 2 h preincubation at 30° C., ATP 500 μM; read-out: Abl Enzyme Assay, biochemical IC50
T1 construct: purchased deCode Genetics
T1 sequence (P00519 with tags, fused parts or gaps): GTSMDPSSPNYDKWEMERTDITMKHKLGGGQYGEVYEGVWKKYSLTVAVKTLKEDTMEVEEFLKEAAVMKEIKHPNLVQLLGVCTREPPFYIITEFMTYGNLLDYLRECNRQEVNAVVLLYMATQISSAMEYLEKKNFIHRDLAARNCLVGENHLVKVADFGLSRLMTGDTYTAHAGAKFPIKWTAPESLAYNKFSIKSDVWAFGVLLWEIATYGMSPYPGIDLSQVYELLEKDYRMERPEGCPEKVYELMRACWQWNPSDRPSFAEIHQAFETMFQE
Experimental: Abl Kinase (SEQ ID NO:1) Assay
Activity of Abl kinase (SEQ ID NO:1) was determined by following the production of ADP from the kinase reaction through coupling with the pyruvate kinase/lactate dehydrogenase system (e.g., Schindler, et al. Science (2000) 289, 1938-1942). In this assay, the oxidation of NADH (thus the decrease at A340nm) was continuously monitored spectrophometrically. The reaction mixture (100 μl) contained Abl kinase (1 nM. Abl from deCode Genetics), peptide substrate (EAIYAAPFAKKK. 0.2 mM), MgCl2 (10 mM), pyruvate kinase (4 units), lactate dehydrogenase (0.7 units), phosphoenol pyruvate (1 mM), and NADH (0.28 mM) in 90 mM Tris buffer containing 0.2% octyl-glucoside and 3.5% DMSO, pH 7.5. Test compounds were incubated with Abl (SEQ ID NO:1) and other reaction reagents at 30° C. for 2 h before ATP (500 μM) was added to start the reaction. The absorption at 340 nm was monitored continuously for 2 hours at 30° C. on Polarstar Optima plate reader (BMG). The reaction rate was calculated using the 1.0 to 2.0 h time frame. Percent inhibition was obtained by comparison of reaction rate with that of a control (i.e. with no test compound). IC50 values were calculated from a series of percent inhibition values determined at a range of inhibitor concentrations using software routines as implemented in the GraphPad Prism software package.

[2] = biological target: T2, c-Kit kinase (SEQ ID NO:9) (Homo sapiens, UniProt P10721); assay: c-Kit kinase assay (pyruvate kinase/lactate dehydrogenase coupled); conditions: <2 min preincubation at 22° C., ATP 200 μM; read-out: c-Kit Enzyme Assay, biochemical IC50
T2 construct: purchased ProQinase
T2 sequence (P10721 with tags, fused parts or gaps): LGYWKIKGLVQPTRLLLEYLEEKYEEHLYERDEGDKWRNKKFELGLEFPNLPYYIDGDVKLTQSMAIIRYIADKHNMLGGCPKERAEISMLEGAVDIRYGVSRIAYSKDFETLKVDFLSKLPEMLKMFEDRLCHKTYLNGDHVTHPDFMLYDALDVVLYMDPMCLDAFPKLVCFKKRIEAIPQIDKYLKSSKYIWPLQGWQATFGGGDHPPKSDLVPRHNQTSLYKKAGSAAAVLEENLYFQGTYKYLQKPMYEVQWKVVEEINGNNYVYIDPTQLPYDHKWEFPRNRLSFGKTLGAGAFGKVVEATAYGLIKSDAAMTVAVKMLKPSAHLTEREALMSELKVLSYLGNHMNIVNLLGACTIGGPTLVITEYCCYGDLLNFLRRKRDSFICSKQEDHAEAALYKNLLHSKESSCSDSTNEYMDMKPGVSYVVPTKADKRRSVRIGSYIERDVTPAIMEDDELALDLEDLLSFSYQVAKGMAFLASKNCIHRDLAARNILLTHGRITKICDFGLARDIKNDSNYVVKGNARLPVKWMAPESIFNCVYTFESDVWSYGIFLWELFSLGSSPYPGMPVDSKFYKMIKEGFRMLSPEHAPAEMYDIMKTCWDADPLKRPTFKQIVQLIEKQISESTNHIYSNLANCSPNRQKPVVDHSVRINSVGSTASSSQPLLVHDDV
Experimental: C-Kit Kinase (SEQ ID NO:9) Assay
Activity of c-Kit kinase (SEQ ID NO:9) was determined by following the production of ADP from the kinase reaction through coupling with the pyruvate kinase/lactate dehydrogenase system (e.g., Schindler, et al. Science (2000) 289, 1938-1942). In this assay, the oxidation of NADH (thus the decrease at A340 nm) was continuously monitored spectrophometrically. The reaction mixture ([…]) contained c-Kit (cKIT residues T544-V976, from ProQinase, 5.4 nM), polyE4Y (1 mg/ml), MgCl2 (10 mM), pyruvate kinase (4 units), lactate dehydrogenase (0.7 units), phosphoenol pyruvate (1 mM), and NADH (0.28 mM) in 90 mM Tris buffer containing 0.2% octyl-glucoside and 1% DMSO, pH 7.5. Test compounds were incubated with […] (SEQ ID NO:9) and other reaction reagents at 22° C. for <2 min before ATP (200 μM) was added to start the reaction. The absorption at 340 nm was monitored continuously for 0.5 hours at 30° C. on Polarstar Optima plate reader (BMG). The reaction rate was calculated using the 0 to 0.5 h time frame. Percent inhibition was obtained by comparison of reaction rate with that of a control (i.e. with no test compound). IC50 values were calculated from a series of percent inhibition values determined at a range of inhibitor concentrations using software routines as implemented in the GraphPad Prism software package.

pIC50 [1]	pIC50 (Abl kinase (SEQ ID NO:1))	pIC50 [2]	Compound
> 7.00	> 7.00	–	Cn1cc(-c2cc(Oc3ccc(NC(=O)Nc4cc(C(C)(C)C)nn4-c4ccc(C#N)cc4)c(F)c3)ccn2)cn1 [Example 6, 1-(3-tert-butyl-1-(4-cyanophenyl)-1H-pyrazol-5-yl)-3-(2-fluoro-4-(2-(1-methyl-1H-pyrazol-4-yl)pyridin-4-yloxy)phenyl)urea]
> 7.00	> 7.00	> 7.00	CC(C)c1cc(NC(=O)Nc2ccc(Oc3ccnc(-c4cnn(C)c4)c3)c(F)c2F)n(-c2cccc(C#N)c2)n1 [Example 13, 1-(1-(3-cyanophenyl)-3-isopropyl-1H-pyrazol-5-yl)-3-(2,3-difluoro-4-(2-(1-methyl-1H-pyrazol-4-yl)pyridin-4-yloxy)phenyl)urea]
> 6.00	> 7.00	–	Cn1cc(-c2cc(Oc3ccc(NC(=O)Nc4cc(-c5ccccc5F)nn4C)c(F)c3F)ccn2)cn1 [Example 25, 1-(2,3-difluoro-4-(2-(1-methyl-1H-pyrazol-4-yl)pyridin-4-yloxy)phenyl)-3-(3-(2-fluorophenyl)-1-methyl-1H-pyrazol-5-yl)urea]
> 7.00	> 7.00	–	Cn1cc(-c2cc(Oc3ccc(NC(=O)Nc4cc(C(C)(C)C)nn4-c4ccc(CO)cc4)c(F)c3)ccn2)cn1 [Example 8, 1-(3-tert-butyl-1-(4-(hydroxymethyl)phenyl)-1H-pyrazol-5-yl)-3-(2-fluoro-4-(2-(1-methyl-1H-pyrazol-4-yl)pyridin-4-yloxy)phenyl)urea]
> 7.00	> 7.00	–	Cn1cc(-c2cc(Oc3ccc(NC(=O)Nc4cc(C(C)(C)C)nn4-c4cccc(C#N)c4)c(F)c3)ccn2)cn1 [Example 4, 1-(3-tert-butyl-1-(3-cyanophenyl)-1H-pyrazol-5-yl)-3-(2-fluoro-4-(2-(1-methyl-1H-pyrazol-4-yl)pyridin-4-yloxy)phenyl)urea hydrochloride]
> 7.00	> 7.00	–	Cc1ccc(-n2nc(C(C)C)cc2NC(=O)Nc2ccc(Oc3ccnc(-c4cnn(C)c4)c3)cc2F)cc1C#N [Example 11, 1-(1-(3-cyano-4-methylphenyl)-3-isopropyl-1H-pyrazol-5-yl)-3-(2-fluoro-4-(2-(1-methyl-1H-pyrazol-4-yl)pyridin-4-yloxy)phenyl)urea]
> 6.00	> 7.00	–	1-(2-tert-butyl-4-(pyridin-3-yl)pyrimidin-5-yl)-3-(2-fluoro-5-(8-methyl-2-(methylamino)-7-oxo-7,8-dihydropyrido[2,3-d]pyrimidin-6-yl)phenyl)urea [Example 10]
> 4.00	> 7.00	–	Cc1ncc(NC(=O)Nc2ccc(Oc3ccnc(-c4cnn(C)c4)c3)cc2F)c(-c2ccccc2)n1 [Example 14, 1-(2-fluoro-4-(2-(1-methyl-1H-pyrazol-4-yl)pyridin-4-yloxy)phenyl)-3-(2-methyl-4-phenylpyrimidin-5-yl)urea]
> 6.00	> 7.00	> 7.00	CCc1cc(NC(=O)Nc2ccc(Oc3ccnc(-c4cnn(C)c4)c3)cc2F)n(-c2ccc(CO)cc2)n1 [Example 19, 1-(3-ethyl-1-(4-(hydroxymethyl)phenyl)-1H-pyrazol-5-yl)-3-(2-fluoro-4-(2-(1-methyl-1H-pyrazol-4-yl)pyridin-4-yloxy)phenyl)urea]
> 6.00	> 7.00	> 7.00	CCc1cc(NC(=O)Nc2ccc(Oc3ccnc(-c4cnn(C)c4)c3)cc2F)n(-c2cccc(C#N)c2)n1 [Example 9, 1-(1-(3-cyanophenyl)-3-ethyl-1H-pyrazol-5-yl)-3-(2-fluoro-4-(2-(1-methyl-1H-pyrazol-4-yl)pyridin-4-yloxy)phenyl)urea]
> 7.00	> 7.00	–	CC(C)c1cc(NC(=O)Nc2ccc(Oc3ccnc(-c4cnn(C)c4)c3)cc2F)n(-c2cccc(F)c2)n1 [Example 24, 1-(2-fluoro-4-(2-(1-methyl-1H-pyrazol-4-yl)pyridin-4-yloxy)phenyl)-3-(1-(3-fluorophenyl)-3-isopropyl-1H-pyrazol-5-yl)urea]
> 7.00	> 7.00	> 7.00	CC(C)c1cc(NC(=O)Nc2ccc(Oc3ccnc(-c4cnn(C)c4)c3)cc2F)n(-c2ccc(F)c(C#N)c2)n1 [Example 5, 1-(1-(3-cyano-4-fluorophenyl)-3-isopropyl-1H-pyrazol-5-yl)-3-(2-fluoro-4-(2-(1-methyl-1H-pyrazol-4-yl)pyridin-4-yloxy)phenyl)urea]
> 6.00	> 7.00	> 7.00	CC(C)n1cc(NC(=O)Nc2ccc(Oc3ccnc(-c4cnn(C)c4)c3)cc2F)c(-c2ccccc2)n1 [Example 21, 1-(2-fluoro-4-(2-(1-methyl-1H-pyrazol-4-yl)pyridin-4-yloxy)phenyl)-3-(1-isopropyl-3-phenyl-1H-pyrazol-4-yl)urea]
> 7.00	> 7.00	> 7.00	Cc1c(Oc2ccnc(-c3cnn(C)c3)c2)ccc(NC(=O)Nc2cc(C(C)C)nn2-c2cccc(C#N)c2)c1F [Example 12, 1-(1-(3-cyanophenyl)-3-isopropyl-1H-pyrazol-5-yl)-3-(2-fluoro-3-methyl-4-(2-(1-methyl-1H-pyrazol-4-yl)pyridin-4-yloxy)phenyl)urea]
> 7.00	> 7.00	–	Cn1cc(-c2cc(Oc3ccc(NC(=O)Nc4cc(C(C)(C)C)nn4-c4cccc(CO)c4)c(F)c3)ccn2)cn1 [Example 7, 1-(3-tert-butyl-1-(3-(hydroxymethyl)phenyl)-1H-pyrazol-5-yl)-3-(2-fluoro-4-(2-(1-methyl-1H-pyrazol-4-yl)pyridin-4-yloxy)phenyl)urea p-toluenesulfonic acid]
> 7.00	> 7.00	–	CC(C)c1cc(NC(=O)Nc2ccc(Oc3ccnc(-c4cnn(C)c4)c3)c(F)c2)n(-c2cccc(C#N)c2)n1 [Example 16, 1-(1-(3-cyanophenyl)-3-isopropyl-1H-pyrazol-5-yl)-3-(3-fluoro-4-(2-(1-methyl-1H-pyrazol-4-yl)pyridin-4-yloxy)phenyl)urea]
> 7.00	> 7.00	–	CC(C)(C)c1cc(NC(=O)Nc2ccc(Oc3ccnc(-c4cn[nH]c4)c3)cc2F)n(-c2cccc(C#N)c2)n1 [Example 3, 1-(4-(2-(1H-pyrazol-4-yl)pyridin-4-yloxy)-2-fluorophenyl)-3-(3-tert-butyl-1-(3-cyanophenyl-1H-pyrazol-5-yl)urea hydrochloride]
